Test results published in paper PMC9073595, “Synthesis, human topoisomerase IIα inhibitory properties and molecular modeling studies of anti-proliferative curcumin mimics” (RSC Advances, 2019).

How the values were obtained:
[1] = system: MCF7 (breast) carcinoma cell line; assay: MTT anti-proliferative assay, MCF7; assay type: cell-based; conditions: Homo sapiens, MCF7, 72 h; read-out: IC50, μM ± SD, MCF7
[2] = system: HCT116 (colon) carcinoma cell line; assay: MTT anti-proliferative assay, HCT116; assay type: cell-based; conditions: Homo sapiens, HCT-116, 72 h; read-out: IC50, μM ± SD, HCT116
[3] = system: A431 (squamous skin) carcinoma cell line; assay: MTT anti-proliferative assay, A431; assay type: cell-based; conditions: Homo sapiens, A-431, 72 h; read-out: IC50, μM ± SD, A431
[4] = system: RPE1 (normal human immortalized retinal pigment epithelial cell line); assay: MTT assay on normal cells, RPE1; assay type: cell-based; conditions: RPE-1, RPE1 normal (non-cancer) cell line, read-out: IC50, μM ± SD, RPE1
Experimental: In-vitro antitumor screening
The targeted piperidinecarboxamides 24‒51 were screened for their antitumor properties against HCT116 (colon), MCF7 (breast) and A431 (squamous skin) carcinoma cell lines by the standard mitochondrial dependent reduction of yellow MTT [3-(4,5-dimethylthiazol-2-yl)-2,5-diphenyl-tetrazolium bromide] to purple formazan technique.11 Cells were suspended in McCoy’s 5A medium for HCT116, DMEM for MCF-7 and A431 in addition to 1% antibiotic–antimycotic mixture (10000 μg ml-1 potassium penicillin, 10000 μg ml-1 streptomycin sulfate and 25 μg ml-1 amphotericin B), 10% fetal bovine serum and 1% L-glutamine at 37 °C, under 5% CO2 and 95% humidity. Cells were seeded at concentration of 30000 cells per well in fresh complete growth medium in 96-well tissue culture microtiter plates for 24 h. Media was aspirated, fresh complete medium was added and cells were incubated with different concentrations of the tested compound to give a final concentration of [50, 25, 12.5 and 6.25 μM ([…] and 0.375 μM for the high potent analogues)]. 0.5% DMSO was used as negative control and 5-fluorouracil was used as positive control (standard reference). Triplicate wells were prepared for each individual dose. After 72 h of incubation, medium was aspirated, 40 μl MTT salt (2.5 mg ml-1) were added to each well and incubated for further 4 h at 37 °C.
To stop the reaction and dissolve the formed crystals, 150 μl of 10% sodium dodecyl sulfate (SDS) in deionized water were added to each well and incubated overnight at 37 °C. The absorbance was then measured at 570 nm and a reference wavelength of 595 nm.
Data were collected as mean values for experiments performed in triplicates for each individual dose which had been measured by MTT assay. Control experiments did […]
survival was calculated according to equ. (1).
Surviving fraction = … . (1)
The synthesized compounds 24‒51 were also tested against RPE1 (normal human immortalized retinal pigment epithelial cell line) cell to determine the toxicity/selectivity […]
towards normal cells relative to the carcinoma cell lines utilized. The IC50 (concentration […]
was determined using Graph-Pad PRISM version-5 software. Statistical calculations for determination of the mean and standard error values were determined by SPSS 16 […]
8:1 which is the ratio between the data points and the number of QSAR descriptor).
Human DNA topoisomerase IIα inhibitory properties

[5] = target: T1, human DNA topoisomerase IIα (Homo sapiens, UniProt P11388); assay: Human DNA topoisomerase IIα activity assay (TopoGEN kit, plasmid based); assay type: biochemical
T1 construct: purchased TopoGEN, Inc
T1 sequence (P11388 whole entry): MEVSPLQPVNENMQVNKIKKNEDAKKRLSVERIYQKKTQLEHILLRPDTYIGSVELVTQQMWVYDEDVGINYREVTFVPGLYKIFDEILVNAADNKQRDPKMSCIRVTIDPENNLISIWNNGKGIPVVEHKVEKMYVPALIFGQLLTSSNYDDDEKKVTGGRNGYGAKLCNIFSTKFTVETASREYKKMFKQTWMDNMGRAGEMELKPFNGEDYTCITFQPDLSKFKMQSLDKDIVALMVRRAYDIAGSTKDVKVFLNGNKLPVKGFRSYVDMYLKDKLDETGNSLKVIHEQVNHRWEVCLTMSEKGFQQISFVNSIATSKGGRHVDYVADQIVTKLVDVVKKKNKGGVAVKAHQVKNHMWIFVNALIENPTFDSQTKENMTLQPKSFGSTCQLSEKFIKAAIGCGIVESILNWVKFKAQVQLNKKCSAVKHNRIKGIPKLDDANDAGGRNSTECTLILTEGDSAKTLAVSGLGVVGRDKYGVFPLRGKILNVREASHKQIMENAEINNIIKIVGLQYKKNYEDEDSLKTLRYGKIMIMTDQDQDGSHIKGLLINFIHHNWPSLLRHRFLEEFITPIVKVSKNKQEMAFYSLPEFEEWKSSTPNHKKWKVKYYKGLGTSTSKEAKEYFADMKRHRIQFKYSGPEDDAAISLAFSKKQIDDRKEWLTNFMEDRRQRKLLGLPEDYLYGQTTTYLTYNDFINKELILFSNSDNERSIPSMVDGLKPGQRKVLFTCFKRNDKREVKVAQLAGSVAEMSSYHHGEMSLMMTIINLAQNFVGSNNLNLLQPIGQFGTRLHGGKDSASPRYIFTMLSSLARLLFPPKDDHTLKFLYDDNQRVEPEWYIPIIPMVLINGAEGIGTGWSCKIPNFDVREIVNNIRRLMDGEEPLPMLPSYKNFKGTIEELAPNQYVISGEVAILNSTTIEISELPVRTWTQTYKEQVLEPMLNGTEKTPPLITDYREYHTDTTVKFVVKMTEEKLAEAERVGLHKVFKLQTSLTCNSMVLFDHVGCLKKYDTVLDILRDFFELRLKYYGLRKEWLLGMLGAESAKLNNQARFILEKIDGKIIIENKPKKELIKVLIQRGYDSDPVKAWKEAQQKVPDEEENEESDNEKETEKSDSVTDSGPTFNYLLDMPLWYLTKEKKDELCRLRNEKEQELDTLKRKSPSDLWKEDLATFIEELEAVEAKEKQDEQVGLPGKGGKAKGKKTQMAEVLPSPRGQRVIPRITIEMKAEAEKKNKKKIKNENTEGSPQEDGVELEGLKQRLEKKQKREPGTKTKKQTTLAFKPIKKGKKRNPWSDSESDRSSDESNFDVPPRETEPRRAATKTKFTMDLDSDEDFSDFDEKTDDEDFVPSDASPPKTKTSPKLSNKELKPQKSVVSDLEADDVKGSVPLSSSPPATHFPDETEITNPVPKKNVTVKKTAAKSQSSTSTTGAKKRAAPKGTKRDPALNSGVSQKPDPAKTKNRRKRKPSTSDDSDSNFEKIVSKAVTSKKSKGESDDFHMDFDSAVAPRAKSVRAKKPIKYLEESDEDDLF

Compound	IC50 [1] [µM]	IC50 [2] [µM]	melting point [°C]	IC50 [3] [µM]	IC50 [4] [µM]	IC50 [5] [µM]
CCNC(=O)N1C/C(=C\c2ccc(Cl)cc2)C(=O)/C(=C/c2ccc(Cl)cc2)C1 [Compound 32, 3,5-Bis[(E)-4-chlorobenzylidene]-N-ethyl-4-oxopiperidine-1-carboxamide]	2.35 ± 0.23	1.04 ± 0.11	211 to 213	1.31 ± 0.09	12.1 ± 1.76	
O=C1/C(=C/c2ccc(F)cc2)CN(C(=O)Nc2ccc(Cl)cc2)C/C1=C\c1ccc(F)cc1 [Compound 35, N-(4-Chlorophenyl)-3,5-bis[(E)-4-fluorobenzylidene]-4-oxopiperidine-1-carboxamide]	1.36 ± 0.17	0.56 ± 0.06	192 to 194	1.2 ± 0.14	8.26 ± 2.33	26.4 ± 1.61
O=C1/C(=C/c2ccccc2)CN(C(=O)Nc2ccccc2)C/C1=C\c1ccccc1 [Compound 24, 3,5-Di[(E)-benzylidene]-4-oxo-N-phenylpiperidine-1-carboxamide]	1.83 ± 0.14	1.08 ± 0.18	179 to 181	2.49 ± 0.31	16.6 ± 1.57	
O=C1/C(=C/c2cccs2)CN(C(=O)Nc2ccccc2)C/C1=C\c1cccs1 [Compound 48, (3E,5E)-4-Oxo-N-phenyl-3,5-bis(thiophen-2-ylmethylene)piperidine-1-carboxamide]	33.7 ± 1.38	> 50		> 50	> 50	
CCNC(=O)N1C/C(=C\c2ccccc2)C(=O)/C(=C/c2ccccc2)C1 [Compound 27, 3,5-Di[(E)-benzylidene]-N-ethyl-4-oxopiperidine-1-carboxamide]	2.95 ± 0.24	1.61 ± 0.14	172 to 174	2.56 ± 0.29	> 50	33.6 ± 1.3
CCNC(=O)N1C/C(=C\c2cccs2)C(=O)/C(=C/c2cccs2)C1 [Compound 50, (3E,5E)-N-Ethyl-4-oxo-3,5-bis(thiophen-2-ylmethylene)piperidine-1-carboxamide]	21.7 ± 2.78	20.1 ± 2.44	197 to 199	40.6 ± 2.88	47.4 ± 2.66	
COc1ccc(/C=C\c2cc(OC)c(OC)c(OC)c2)cc1O [Combretastatin A-4, reference compound]						22 ± 0.85
O=C1/C(=C/c2ccc(Cl)cc2)CN(C(=O)NCc2ccccc2)C/C1=C\c1ccc(Cl)cc1 [Compound 33, N-Benzyl-3,5-bis[(E)-4-chlorobenzylidene]-4-oxopiperidine-1-carboxamide]	2.14 ± 0.26	1.13 ± 0.19	199 to 201	1.45 ± 0.12	11.4 ± 1.68	
Cc1ccc(/C=C2\CN(C(=O)Nc3ccccc3)C/C(=C\c3ccc(C)cc3)C2=O)cc1 [Compound 39, 3,5-Bis[(E)-4-methylbenzylidene]-4-oxo-N-phenylpiperidine-1-carboxamide]	3.96 ± 0.29	1.44 ± 0.17	221 to 223	2.57 ± 0.15	> 50	41.3 ± 1.6
O=C1/C(=C/c2ccc(F)cc2)CN(C(=O)Nc2ccccc2)C/C1=C\c1ccc(F)cc1 [Compound 34, 3,5-Bis[(E)-4-fluorobenzylidene]-4-oxo-N-phenylpiperidine-1-carboxamide]	2.34 ± 0.29	0.56 ± 0.04	191 to 193	1.27 ± 0.09	17.5 ± 2.16	30.7 ± 1.32
COc1cc(/C=C/C(=O)CC(=O)/C=C/c2ccc(O)c(OC)c2)ccc1O [Curcumin]	16 ± 2.04	38.2 ± 2.36				
Cc1ccc(/C=C2\CN(C(=O)NCc3ccccc3)C/C(=C\c3ccc(C)cc3)C2=O)cc1 [Compound 42, N-Benzyl-3,5-bis[(E)-4-methylbenzylidene]-4-oxopiperidine-1-carboxamide]	4.9 ± 0.26	23 ± 1.82	166 to 168	8.75 ± 0.4	47 ± 2.17	31.5 ± 1.22
O=C1/C(=C/c2ccc(Cl)cc2)CN(C(=O)Nc2ccccc2)C/C1=C\c1ccc(Cl)cc1 [Compound 29, 3,5-Bis[(E)-4-chlorobenzylidene]-4-oxo-N-phenylpiperidine-1-carboxamide]	1.33 ± 0.24	0.7 ± 0.06	205 to 207	1.29 ± 0.15	9.67 ± 2.03	29 ± 1.39
CCNC(=O)N1C/C(=C\c2ccc(C)cc2)C(=O)/C(=C/c2ccc(C)cc2)C1 [Compound 41, N-Ethyl-3,5-bis[(E)-4-methylbenzylidene]-4-oxopiperidine-1-carboxamide]	4.58 ± 0.28	2.26 ± 0.23	174 to 176	2.64 ± 0.27	18.9 ± 1.33	50.2 ± 1.94
O=C1/C(=C/c2ccc(Cl)cc2)CN(C(=O)Nc2ccc(Cl)cc2)C/C1=C\c1ccc(Cl)cc1 [Compound 30, 3,5-Bis[(E)-4-chlorobenzylidene]-N-(4-chlorophenyl)-4-oxopiperidine-1-carboxamide]	1.13 ± 0.29	0.58 ± 0.07	185 to 187	0.64 ± 0.08	4.89 ± 1.97	41.8 ± 2.42
CCNC(=O)N1C/C(=C\c2ccc(OC)cc2)C(=O)/C(=C/c2ccc(OC)cc2)C1 [Compound 46, N-Ethyl-3,5-bis[(E)-4-methoxybenzylidene]-4-oxopiperidine-1-carboxamide]	5.73 ± 0.33	1.5 ± 0.14	173 to 175	8.83 ± 1.26	47.7 ± 3.05	56.2 ± 2.18
COc1ccc(/C=C2\CN(C(=O)Nc3ccc(Cl)cc3)C/C(=C\c3ccc(OC)cc3)C2=O)cc1 [Compound 44, N-(4-Chlorophenyl)-3,5-bis[(E)-4-methoxybenzylidene]-4-oxopiperidine-1-carboxamide]	4.17 ± 0.27	1.11 ± 0.09	185 to 187	2.85 ± 0.16	> 50	46.2 ± 1.79
COc1ccc(NC(=O)N2C/C(=C\c3ccc(Cl)cc3)C(=O)/C(=C/c3ccc(Cl)cc3)C2)cc1 [Compound 31, 3,5-Bis[(E)-4-chlorobenzylidene]-N-(4-methoxyphenyl)-4-oxopiperidine-1-carboxamide]	1.44 ± 0.19	1.03 ± 0.13	210 to 212	1.24 ± 0.14	7.5 ± 1.75	
O=C1/C(=C/c2cccs2)CN(C(=O)NCc2ccccc2)C/C1=C\c1cccs1 [Compound 51, (3E,5E)-N-Benzyl-4-oxo-3,5-bis(thiophen-2-ylmethylene)piperidine-1-carboxamide]	> 50	> 50		> 50	> 50	
COc1ccc(NC(=O)N2C/C(=C\c3cccs3)C(=O)/C(=C/c3cccs3)C2)cc1 [Compound 49, (3E,5E)-N-(4-Methoxyphenyl)-4-oxo-3,5-bis(thiophen-2-ylmethylene)piperidine-1-carboxamide]	24.7 ± 1.99	40.8 ± 2.61	194 to 196	> 50	> 50	
O=C1/C(=C/c2ccccc2)CN(C(=O)Nc2ccc(Cl)cc2)C/C1=C\c1ccccc1 [Compound 25, 3,5-Di[(E)-benzylidene]-N-(4-chlorophenyl)-4-oxopiperidine-1-carboxamide]	2.09 ± 0.26	1.03 ± 0.29	186 to 188	2.51 ± 0.24	22.1 ± 2.06	
COc1ccc(NC(=O)N2C/C(=C\c3ccccc3)C(=O)/C(=C/c3ccccc3)C2)cc1 [Compound 26, 3,5-Di[(E)-benzylidene]-N-(4-methoxyphenyl)-4-oxopiperidine-1-carboxamide]	2.48 ± 0.31	1.43 ± 0.2	184 to 186	2.83 ± 0.36	17.7 ± 1.98	
O=C1/C(=C/c2ccccc2)CN(C(=O)NCc2ccccc2)C/C1=C\c1ccccc1 [Compound 28, N-Benzyl-3,5-di[(E)-benzylidene]-4-oxopiperidine-1-carboxamide]	2.58 ± 0.3	1.31 ± 0.22	163 to 165	2.58 ± 0.27	12 ± 1.76	
